The text below walks through data of the supplement of paper PMC10331698.

What all share (test): level (log10 ratio to DMSO vehicle control); higher = higher biomarker level / cell amount than vehicle control
Compound in experiment [1]: OCCC(F)(F)C(F)(F)C(F)(F)C(F)(F)F [4:2 Fluorotelomer alcohol] (in DMSO)
The method, then:
(§1)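 BioMAP Diversity Plus panel of 12 human primary cell co-culture systems (3C, 4H, LPS, SAg, BT, BF4T, BE3C, CASM3C, HDF3CGF, KF3CT, MyoF, Mphg). Compounds were added 1 h before stimulation and left for 24 h (MyoF 48 h; BT 72 h for soluble read-outs or 6 d for IgG). Biomarkers were read by ELISA, cytotoxicity by SRB, PBMC viability and proliferation by Alamar Blue. Each well value was divided by the mean of 8 DMSO control wells on the same plate and log10 transformed; duplicate blinded samples were tested at 4 concentrations.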

Compound in experiment [2]: O=S(=O)(O)C(F)(F)C(F)(F)C(F)(F)C(F)(F)C(F)(F)C(F)(F)C(F)(F)F [Perfluoroheptanesulfonic acid] (in DMSO)
The method, then: as §1

Compound in experiment [3]: O=C(O)C(F)(OC(F)(F)C(F)(OC(F)(F)C(F)(OC(F)(F)C(F)(F)C(F)(F)F)C(F)(F)F)C(F)(F)F)C(F)(F)F [Perfluoro-(2,5,8-trimethyl-3,6,9-trioxadodecanoic)acid] (in DMSO)
The method, then: as §1

Compound in experiment [4]: O=S(=O)(O)CCC(F)(F)C(F)(F)C(F)(F)C(F)(F)C(F)(F)C(F)(F)C(F)(F)C(F)(F)F [8:2 Fluorotelomer sulfonic acid] (in DMSO)
On the procedure:
as §1

Compound in another experiment: O=C(O)C(F)(F)C(F)(F)C(F)(F)C(F)(F)C(F)(F)C(F)(F)C(F)(F)C(F)(F)F [Perfluorononanoic acid] (in DMSO)
On the procedure: as §1

Compound in experiment [5]: C=C(C)C(=O)OCCC(F)(F)C(F)(F)C(F)(F)C(F)(F)C(F)(F)C(F)(F)C(F)(F)C(F)(F)F [8:2 Fluorotelomer methacrylate] (in DMSO)
The method, then: as §1

Compound in a further experiment: O=C(O)C(F)(F)C(F)(F)C(F)(F)C(F)(F)C(F)(F)C(F)(F)C(F)(F)C(F)(F)C(F)(F)C(F)(F)F [Perfluoroundecanoic acid] (in DMSO)
The note with it: 6700 nM. The method, then:
as §1

± gives the standard deviation of the averaged measurements.

As for CASM3C:LDLR, the “level (log10)” value in experiment [1] (6700 nM) was -0.0485 ± 0.026; in experiment [1] (20000 nM), -0.034 ± 0.011; in experiment [1] (60000 nM), -0.0455 ± 0.037; in experiment [2] (1500 nM), -0.0275 ± 0.0021; in experiment [2] (4400 nM), -0.0135 ± 0.00071; in experiment [2] (13000 nM), -0.0215 ± 0.0092. The “level (log10)” value is -0.0165 ± 0.011 in experiment [2] (40000 nM); 0.0065 ± 0.011 in experiment [3] (1100 nM); 0.004 ± 0.0014 in experiment [3] (3300 nM); 0.0025 ± 0.021 in experiment [3] (10000 nM); -0.0005 ± 0.0064 in experiment [4] (6700 nM); 0.0135 ± 0.013 in experiment [4] (20000 nM). Further, the “level (log10)” value in experiment [4] (60000 nM) was 0.0415 ± 0.026; in the experiment with Perfluorononanoic acid (6700 nM), -0.05 ± 0.02; in the experiment with Perfluorononanoic acid (20000 nM), -0.0415 ± 0.011; in experiment [5] (6700 nM), -0.0085 ± 0.018; in experiment [5] (20000 nM), 0.0055 ± 0.026; in the experiment with Perfluoroundecanoic acid, -0.0265 ± 0.016.

In the case of CASM3C:M-CSF, the “level (log10)” value in experiment [1] (6700 nM) was -0.085 ± 0.027; in experiment [1] (20000 nM) it was -0.048 ± 0.0028; in experiment [1] (60000 nM), 0.0105 ± 0.0035; in experiment [2] (1500 nM), -0.0215 ± 0.0021; in experiment [2] (4400 nM), -0.0305 ± 0.0035; in experiment [2] (13000 nM), -0.039 ± 0.028. The “level (log10)” value in experiment [2] (40000 nM) was -0.02 ± 0.047; in experiment [3] (1100 nM), -0.0285 ± 0.029; in experiment [3] (3300 nM), 0.0055 ± 0.016; in experiment [3] (10000 nM), 0.002 ± 0.0014; in experiment [4] (6700 nM), 0.0005 ± 0.015; in experiment [4] (20000 nM) it was -0.0115 ± 0.0021. The “level (log10)” value is 0.037 ± 0.028 in experiment [4] (60000 nM); 0.045 ± 0.0099 with Perfluorononanoic acid (6700 nM); 0.0435 ± 0.028 in the experiment with Perfluorononanoic acid (20000 nM); -0.0325 ± 0.019 in experiment [5] (6700 nM); -0.019 ± 0.067 in experiment [5] (20000 nM); 0.019 ± 0.0085 in the experiment with Perfluoroundecanoic acid.

CASM3C:PAI-I: the “level (log10)” value in experiment [1] (6700 nM) was -0.0085 ± 0.011; in experiment [1] (20000 nM), 0.001 ± 0.017; in experiment [1] (60000 nM), -0.0015 ± 0.021; in experiment [2] (1500 nM), 0.006 ± 0.0057; in experiment [2] (4400 nM), 0.0075 ± 0.0064; in experiment [2] (13000 nM) it was 0.009 ± 0.0042. Further, the “level (log10)” value in experiment [2] (40000 nM) was 0.008 ± 0.0042; in experiment [3] (1100 nM), -0.002 ± 0.0014; in experiment [3] (3300 nM) it was -0.0005 ± 0.0035; in experiment [3] (10000 nM) it was 0.009 ± 0.0099; in experiment [4] (6700 nM), -0.0015 ± 0.019; in experiment [4] (20000 nM), 0.012 ± 0.018. Further, the “level (log10)” value is 0.0095 ± 0.012 in experiment [4] (60000 nM); 0.0015 ± 0.011 with Perfluorononanoic acid (6700 nM); -0.008 ± 0.017 with Perfluorononanoic acid (20000 nM); 0.001 ± 0.0014 in experiment [5] (6700 nM); 0.0065 ± 0.011 in experiment [5] (20000 nM); 0.005 ± 0.0057 with Perfluoroundecanoic acid.

For CASM3C:Proliferation, the “level (log10)” value in experiment [1] (6700 nM) was 0.0185 ± 0.03; in experiment [1] (20000 nM), 0.0335 ± 0.044; in experiment [1] (60000 nM) it was 0.0185 ± 0.028; in experiment [2] (1500 nM), 0.0285 ± 0.0092; in experiment [2] (4400 nM), -0.026; in experiment [2] (13000 nM) it was -0.028 ± 0.016. The “level (log10)” value in experiment [2] (40000 nM) is -0.034 ± 0.028; in experiment [3] (1100 nM) it was 0.011 ± 0.0014; in experiment [3] (3300 nM), -0.008 ± 0.016; in experiment [3] (10000 nM) it was -0.018 ± 0.023; in experiment [4] (6700 nM) it was 0.005 ± 0.072; in experiment [4] (20000 nM), 0.0065 ± 0.022. The “level (log10)” value in experiment [4] (60000 nM) is 0.0245 ± 0.023; with Perfluorononanoic acid (6700 nM) it was 0.0505 ± 0.059; with Perfluorononanoic acid (20000 nM) it was 0.021 ± 0.052; in experiment [5] (6700 nM) it was -0.01 ± 0.017; in experiment [5] (20000 nM), -0.0245 ± 0.035; with Perfluoroundecanoic acid, 0.0285 ± 0.011.

Take CASM3C:SRB: the “level (log10)” value in experiment [1] (6700 nM) is 0.0045 ± 0.0035; in experiment [1] (20000 nM), -0.008; in experiment [1] (60000 nM), 0.0015 ± 0.0092; in experiment [2] (1500 nM), 0.004 ± 0.0057; in experiment [2] (4400 nM) it was 0.0045 ± 0.00071; in experiment [2] (13000 nM) it was -0.0075 ± 0.0035. Further, the “level (log10)” value in experiment [2] (40000 nM) is -0.011 ± 0.0014; in experiment [3] (1100 nM) it was 0.0035 ± 0.005; in experiment [3] (3300 nM), -0.006 ± 0.0071; in experiment [3] (10000 nM) it was 0.0005 ± 0.0035; in experiment [4] (6700 nM) it was 0.0075 ± 0.005; in experiment [4] (20000 nM), 0.0055 ± 0.005. Moreover, the “level (log10)” value in experiment [4] (60000 nM) is 0.0105 ± 0.0035; with Perfluorononanoic acid (6700 nM), -0.0005 ± 0.0064; with Perfluorononanoic acid (20000 nM), 0.002; in experiment [5] (6700 nM) it was -0.006 ± 0.0028; in experiment [5] (20000 nM), -0.0015 ± 0.005; with Perfluoroundecanoic acid, 0.0025 ± 0.0035.

Turning to CASM3C:Serum Amyloid A, the “level (log10)” value in experiment [1] (6700 nM) is -0.081 ± 0.081; in experiment [1] (20000 nM), -0.0345 ± 0.023; in experiment [1] (60000 nM), -0.013 ± 0.1; in experiment [2] (1500 nM), 0.03 ± 0.051; in experiment [2] (4400 nM), -0.027 ± 0.0028; in experiment [2] (13000 nM) it was -0.0305 ± 0.032. Moreover, the “level (log10)” value is -0.013 ± 0.048 in experiment [2] (40000 nM); -0.005 ± 0.014 in experiment [3] (1100 nM); 0.0105 ± 0.036 in experiment [3] (3300 nM); 0.04 ± 0.03 in experiment [3] (10000 nM); 0.0195 ± 0.0064 in experiment [4] (6700 nM); 0.0475 ± 0.025 in experiment [4] (20000 nM). The “level (log10)” value in experiment [4] (60000 nM) is 0.096 ± 0.0042; with Perfluorononanoic acid (6700 nM) it was -0.014 ± 0.018; with Perfluorononanoic acid (20000 nM), -0.012 ± 0.048; in experiment [5] (6700 nM) it was -0.045 ± 0.0057; in experiment [5] (20000 nM) it was -0.02 ± 0.078; with Perfluoroundecanoic acid, 0.014 ± 0.016.

For HDF3CGF:CCL2/MCP-1, the “level (log10)” value in experiment [1] (6700 nM) was -0.0305 ± 0.08; in experiment [1] (20000 nM), -0.043 ± 0.027; in experiment [1] (60000 nM), -0.0315 ± 0.052; in experiment [2] (1500 nM), 0.006; in experiment [2] (4400 nM), 0.0055 ± 0.0035; in experiment [2] (13000 nM), 0.005 ± 0.014. The “level (log10)” value is 0.021 ± 0.038 in experiment [2] (40000 nM); -0.0035 ± 0.016 in experiment [3] (1100 nM); -0.0365 ± 0.005 in experiment [3] (3300 nM); -0.01 ± 0.0042 in experiment [3] (10000 nM); 0.0005 ± 0.022 in experiment [4] (6700 nM); -0.008 ± 0.03 in experiment [4] (20000 nM). Further, the “level (log10)” value in experiment [4] (60000 nM) is 0.0115 ± 0.022; with Perfluorononanoic acid (6700 nM) it was 0.0235 ± 0.074; with Perfluorononanoic acid (20000 nM) it was -0.056 ± 0.055; in experiment [5] (6700 nM), -0.0095 ± 0.016; in experiment [5] (20000 nM), -0.012 ± 0.023; with Perfluoroundecanoic acid, -0.077 ± 0.042.

With HDF3CGF:CD54/ICAM-1, the “level (log10)” value in experiment [1] (6700 nM) is -0.0095 ± 0.019; in experiment [1] (20000 nM) it was -0.0255 ± 0.0035; in experiment [1] (60000 nM), -0.0285 ± 0.005; in experiment [2] (1500 nM) it was 0.0035 ± 0.035; in experiment [2] (4400 nM) it was -0.007 ± 0.028; in experiment [2] (13000 nM) it was 0.0075 ± 0.023. The “level (log10)” value in experiment [2] (40000 nM) is -0.0165 ± 0.039; in experiment [3] (1100 nM) it was -0.001 ± 0.0057; in experiment [3] (3300 nM), -0.0015 ± 0.012; in experiment [3] (10000 nM), 0.011 ± 0.031; in experiment [4] (6700 nM), -0.012 ± 0.017; in experiment [4] (20000 nM), -0.04 ± 0.011. Also, the “level (log10)” value in experiment [4] (60000 nM) is -0.0805 ± 0.012; in the experiment with Perfluorononanoic acid (6700 nM), -0.031 ± 0.0099; with Perfluorononanoic acid (20000 nM), -0.033 ± 0.011; in experiment [5] (6700 nM) it was 0.0035 ± 0.021; in experiment [5] (20000 nM) it was 0.0055 ± 0.013; in the experiment with Perfluoroundecanoic acid it was -0.0765 ± 0.00071.
